Source: patent US20230227838A1, “ENHANCED CELL SURVIVAL AGAINST BIOTIC AND ABIOTIC STRESSES THROUGH SALICYLICK ACID-INDUCED NPR1 CONDENSATES” (priority 2020, published 2023)

Columns and labels:
[1] = system: Psm ES4326/AvrRpt2; assay: Bacterial growth assay in infected leaves; assay type: in vivo, Arabidopsis thaliana; conditions: SA pretreatment at 0.5 and 1 mM; WT plants, not in npr1-2 mutant
Text: (§1) Chemical treatment, pathogen infection and cell death assays. […] At 2 days, the bacterial colonies were scored.

[2] = system: cell death induced by heat shock, oxidative and DNA damage stresses; conditions: 1 mM SA 24 hr before stress; WT, not in npr1-2
Description: (§2) Chemical treatment, pathogen infection and cell death assays. For soil-grown Arabidopsis plants, SA treatment was carried out with spray at indicated concentrations. For seedlings grown vertically on solid 1/2 MS medium for 10-12 days, SA […] treatment (1 mM), with or without the proteasome inhibitor MG132 (50 μM), and protein synthesis […] inhibitor cycloheximide (100 μM) was done by submerging them in solutions for indicated periods. Unless otherwise stated, in N. benthamiana, SA treatment was done by infiltrating leaves 24 hr after agroinfiltration. SA pre-treatment of mature Arabidopsis was done by spray 24 hr before bacterial infection or cell death induction. For bacterial infections, Pseudomonas syringae pv. maculicola ES4326 carrying AvrRpt2 or AvrRpm1 effectors, and Pf Pf0-1 carrying functional AvrRps4 or non-functional AvrRps4KRVY-AAAA effectors were grown for 2 days on solid King's B medium supplemented with appropriate antibiotics. […] Bacteria were pressure infiltrated into mature leaves of three-week-old Arabidopsis plants and cell death or bacterial growth were assessed at indicated times post inoculation (hpi, hours post inoculation; dpi, days post inoculation). […]

[3] = system: cell death triggered by in planta expression of the effector, AvrRpt2; conditions: SA treatment before dexamethasone induction
Description: as §2

[4] = system: WRKY70-GFP; assay: Stability and ubiquitination of WRKY70-GFP; assay type: in vivo, Arabidopsis thaliana
Description: as §1
Protein analysis and IP. Recombinant protein analysis was performed using transient expression in N. benthamiana, or stable over-expression in transgenic Arabidopsis, or expression in E. coli. Total protein extraction from plants was performed by homogenizing leaf tissue in the plant extraction buffer [50 mM Tris-HCl (pH 7.5), 150 mM NaCl, 5 mM EDTA, 0.2% Triton X-100, 0.2% Nonidet P-40] supplemented with 1 mM PMSF, 100 μM MG132, and EDTA-free protease inhibitor cocktail (Roche). For ubiquitinated protein analysis in plants, 100 μM of DUB (deubiquitinase) inhibitor (LifeSensors) and 10 mM NEM were added. Next, the lysates were cleared by centrifugation at 14,000 rpm for 15 min followed by filtering through a 0.2 μm filter. […] Pull-downs or IP experiments were done on total protein extracts by incubating protein samples in the lysis buffer overnight with indicated affinity tag or antibody conjugated to agarose or magnetic beads: GFP-trap agarose beads (Chromotek) for GFP fusions; RFP-trap agarose beads (Chromotek) for mCherry fusions; anti-HA magnetic beads (ThermoFisher) for HA tag fusions; anti-DYKDDDDK coupled magnetic agarose (ThermoFisher) for FLAG tag fusions; and glutathione magnetic agarose (ThermoFisher) for GST fusions. […]

## O=C(O)c1ccccc1O [SA, salicylic acid]
[1]
  pathogen growth: increased pathogen growth
[2]
  cell death induced by heat shock, oxidative and DNA damage stresses: significantly suppressed cell death
[3]
  cell death triggered by in planta expression of AvrRpt2: protect against cell death
[4]; 1 mM SA for 24 h, WT, not npr1-2
  ubiquitination of WRKY70-GFP: increased ubiquitination of WRKY70-GFP
[4]; 1 mM SA for 24 hr, NPR1- and proteasome-dependent
  WRKY70-GFP protein level: reduced
